Assay results taken from patent publication US7371737B2, “2-substituted-6-trifluoromethyl purine derivatives with adenosine-A3 antagonistic activity” (Solvay Pharmaceuticals, B.V., priority 2004, dated 2008).

Tests used:
[1] = target: T1, human Adenosine A3 receptor (Homo sapiens, UniProt P0DMS8); experiment: In vitro affinity for human adenosine-A3 receptors (radioligand [125I]-AB-MECA); type: binding; design: expressed in transfected cells; host or cells: HEK 293 cells (membrane preparations); conditions: membranes of HEK 293 cells stably expressing human A3, [125I]-AB-MECA, 22° C., 90 minutes; for Ki: read-out: Adenosine receptor affinity (binding) A3 pKi (converted)
T1 sequence (P0DMS8 1-318): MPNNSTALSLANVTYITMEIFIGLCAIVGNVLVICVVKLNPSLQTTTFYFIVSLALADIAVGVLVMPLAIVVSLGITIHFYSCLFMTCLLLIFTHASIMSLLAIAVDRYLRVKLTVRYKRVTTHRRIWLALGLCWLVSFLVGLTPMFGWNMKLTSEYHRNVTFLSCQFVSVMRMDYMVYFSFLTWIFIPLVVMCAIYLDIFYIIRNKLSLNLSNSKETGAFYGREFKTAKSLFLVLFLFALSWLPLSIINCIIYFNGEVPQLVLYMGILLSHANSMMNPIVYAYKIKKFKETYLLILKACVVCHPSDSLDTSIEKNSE
Method: Affinity of the compounds for human adenosine-A3 receptors was determined using the receptor binding assay described by C. A. Salvatore et al.: “Molecular cloning and characterization of the human A3 adenosine receptor”, Proc. Natl. Acad. Sci. USA, 90, 10365-10369, 1993. Briefly, membrane preparations were obtained from human recombinant (HEK 293) cells in which the human adenosine-A3 receptor was stably expressed. […] Separation of bound radioactivity from free was done by filtration through Packard GF/B glass fiber filters with several washings with ice-cold buffer using a Packard cell harvester. Bound radioactivity was measured with a scintillation counter (Topcount, Packard) using a liquid scintillation cocktail (Microscint 0, Packard). […] Determination of In Vitro Functional Activity on Human Adenosine A3 Receptors Using an Aequorin-based Assay

[2] = target: T2, human adenosine-A1 receptors (Homo sapiens, UniProt P30542); experiment: In vitro affinity for human adenosine-A1 receptors (radioligand [3H]DPCPX); type: binding; conditions: human recombinant receptors expressed in CHO cells; for Ki: read-out: Adenosine receptor affinity (binding) A1 pKi (converted)
T2 construct: expressed in transfected cells; host or cells: CHO cells
T2 sequence (P30542 1-326): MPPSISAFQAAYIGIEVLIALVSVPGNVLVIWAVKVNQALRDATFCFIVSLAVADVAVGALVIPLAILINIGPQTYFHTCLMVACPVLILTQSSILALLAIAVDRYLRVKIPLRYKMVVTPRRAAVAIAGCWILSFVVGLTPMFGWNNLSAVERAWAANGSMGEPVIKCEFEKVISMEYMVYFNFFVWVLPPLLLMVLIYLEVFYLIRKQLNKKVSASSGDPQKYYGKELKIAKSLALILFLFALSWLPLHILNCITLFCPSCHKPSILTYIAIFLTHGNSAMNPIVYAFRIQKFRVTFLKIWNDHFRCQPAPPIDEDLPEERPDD
Method: Affinity of the compounds for human adenosine-A1 receptors was determined using the receptor binding assay described by A. Townsend-Nicholson and P. R. Schofield (Biol. Chem., 269, 2373, 1994), using human recombinant receptors expressed in CHO cells, and [^3H]DPCPX as radioligand.

[3] = target: T3, human adenosine-A2A receptors (Homo sapiens, UniProt P29274); experiment: In vitro affinity for human adenosine-A2A receptors (radioligand [3H]CGS 21680); type: binding; conditions: human recombinant receptors expressed in HEK-293 cells; for Ki: read-out: Adenosine receptor affinity (binding) A2A pKi (converted)
T3 construct: expressed in transfected cells; host or cells: HEK-293 cells
Method: Affinity of the compounds for human adenosine-A2A receptors was determined using the receptor binding assay described by D. R. Luthin et al., (Mol. Pharmacol., 47, 307, 1995), using human recombinant receptors expressed in HEK-293 cells, and [^3H]CGS 21680 as radioligand.

[4] = target: T1, human Adenosine A3 receptor; experiment: In vitro functional activity on human adenosine A3 receptors using an Aequorin-based assay; type: cell-based; design: A. et al. (Acc. Number GenBank: L22607); host or cells: CHO-K1 cells stably expressing mitochondrially targeted aequorin and Galpha16; conditions: hA3-Aequorin CHO-K1 cells; for EC50: agonist mode, concentrations up to 10^−5 M, read-out: Functional activity A3 agonism pEC50 (converted); for Kb: antagonist mode, N6-benzyl-NECA as the agonist, read-out: Functional activity A3 antagonism pA2 (converted)
From the text: A stable monoclonal hA3-Aequorin cell line was provided by Euroscreen. The coding region encoding the human Adenosine A3 receptor was amplified by polymerase chain reaction (PCR), using human lung cDNA as template. The PCR product was ligated in the expression vector pEFIN3 (Invitrogen), and the complete sequence of the insert was then established. […] A. et al. (Acc. Number GenBank: L22607). The expression plasmid containing the coding sequence of the human Adenosine A3 receptor was transfected in CHO-K1 cells stably expressing mitochondrially targetted Aequorin and Gα16. Resistant clones were selected in the presence of 400 μg/ml G418 and isolated by limiting dilution. […] The hA3-Aequorin cells express mitochondrially targetted apo-Aequorin. Cells have to be loaded with coelenterazine, in order to reconstitute active Aequorin. After binding of agonists to the hA3 receptor, the intracellular calcium concentration increases, which leads to a luminescent response. Binding of calcium to the apo-Aequorin/coelenterazine complex leads to an oxidation reaction of coelenterazine, which results in the production of apo-Aequorin, coelenteramide, CO2 and light (λmax 469 nm). This luminescent response is dependent on the agonist concentration.
Assay-protocol: • Dilute the loaded cells 18× in Dulbecco's medium without PhenolRed (Gibco BRL), pre-heated to 37° C., resulting in a concentration of 2.8*10^5 cells/ml. • Stir for 1 hour at room temperature. • Add 10 μl compound or control per well in white 96-well plates. • Add 90 μl of diluted cells (2.5*10^4 cells/well). • Measure chemoluminescence immediately for 20 seconds. • In antagonist mode 50 μl 10^−6 N6-benzyl-NECA is added as the agonist. • Measure chemoluminescence immediately for 20 seconds using the MicroBetaJet (PerkinElmer).

T3 sequence (P29274 whole entry): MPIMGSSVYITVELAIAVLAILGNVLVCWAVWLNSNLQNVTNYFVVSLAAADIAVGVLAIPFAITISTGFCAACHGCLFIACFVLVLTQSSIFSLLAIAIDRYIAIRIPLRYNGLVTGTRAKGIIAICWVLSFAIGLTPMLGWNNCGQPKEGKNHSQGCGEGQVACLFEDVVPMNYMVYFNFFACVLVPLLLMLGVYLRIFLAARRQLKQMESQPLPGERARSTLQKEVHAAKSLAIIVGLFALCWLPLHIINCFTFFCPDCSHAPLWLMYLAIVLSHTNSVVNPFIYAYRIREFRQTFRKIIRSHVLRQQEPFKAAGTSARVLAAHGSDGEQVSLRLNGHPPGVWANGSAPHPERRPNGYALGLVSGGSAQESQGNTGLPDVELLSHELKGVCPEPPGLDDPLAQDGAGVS

Row | Ki [1] | Ki [2] | Ki [3] | EC50 [4] | Kb [4] | SMILES | Adenosine receptor affinity (binding) A3 pKi [1] | Adenosine receptor affinity (binding) A1 pKi [2] | Adenosine receptor affinity (binding) A2A pKi [3]
1 | 3.98 µM | > 10 µM | > 10 µM | – | – | Cn1cnc2c(C(F)(F)F)nc([N+](=O)[O-])nc21 [Compound 1, 2-nitro-6-trifluoromethyl-9-methyl purine] | – | – | –
2 | – | – | – | – | – | OC[C@H]1O[C@@H](n2cnc3c(C(F)(F)F)nc(N4CCCCC4)nc32)[C@H](O)[C@@H]1O [Compound 3, 2-piperidinyl-6-trifluoromethyl-9-β-D-ribofuranosyl purine] | 5.4 | <5.0 | <5.0
3 | 15.8 µM | > 10 µM | > 10 µM | > 10 µM | 0.2 µM | OC[C@H]1O[C@@H](n2cnc3c(C(F)(F)F)nc(N4CCC(O)CC4)nc32)[C@H](O)[C@@H]1O [Compound 4, 2-(4-OH-piperidinyl)-6-trifluoromethyl-9-β-D-ribofuranosyl purine] | – | – | –
4 | 2.51 µM | > 10 µM | > 10 µM | > 10 µM | 2 µM | Cn1c(I)nc2c(C(F)(F)F)nc(NCCc3ccccc3)nc21 [Compound 12, 8-iodo-6-trifluoromethyl-9-methyl-2-phenethylamino purine] | – | – | –
5 | 1.26 µM | > 10 µM | 7.94 µM | > 10 µM | 0.158 µM | Cn1c(-c2ccco2)nc2c(C(F)(F)F)nc(NCCc3ccccc3)nc21 [Compound 13, 8-(furan-2-yl)-6-trifluoromethyl-9-methyl-2-phenethylamino purine] | – | – | –
6 | 1.58 µM | 6.31 µM | > 10 µM | > 10 µM | 1.58 µM | Cn1c(-c2cccs2)nc2c(C(F)(F)F)nc(NCCc3ccccc3)nc21 [Compound 14, 8-(thien-2-yl)-6-trifluoromethyl-9-methyl-2-phenethylamino purine] | – | – | –
7 | 3.16 µM | > 10 µM | > 10 µM | – | – | Cn1c(N2CCCC2)nc2c(C(F)(F)F)nc(NCCc3ccccc3)nc21 [Compound 15, 8-N-pyrrolidinyl-6-trifluoromethyl-9-methyl-2-phenethylamino purine] | – | – | –
8 | 3.98 µM | > 10 µM | 15.8 µM | – | – | Cn1c(N2CCCCC2)nc2c(C(F)(F)F)nc(NCCc3ccccc3)nc21 [Compound 16, 8-N-piperidinyl-6-trifluoromethyl-9-methyl-2-phenethyl amino purine] | – | – | –
9 | 1.58 µM | > 10 µM | > 10 µM | – | – | Cn1c(N2CCOCC2)nc2c(C(F)(F)F)nc(NCCc3ccccc3)nc21 [Compound 17, 8-N-morpholinyl-6-trifluoromethyl-9-methyl-2-phenethylamino purine] | – | – | –
10 | 0.631 µM | 3.16 µM | 1.26 µM | – | – | Cn1c(NC2CCCC2)nc2c(C(F)(F)F)nc(NCCc3ccccc3)nc21 [Compound 18, 8-cyclopentylamino-6-trifluoromethyl-9-methyl-2-phenethylamino purine] | – | – | –
11 | 2 µM | > 10 µM | 7.94 µM | – | – | Cn1c(-c2ccccc2)nc2c(C(F)(F)F)nc(NCCc3ccccc3)nc21 [Compound 19, 8-phenyl-6-trifluoromethyl-9-methyl-2-phenethylamino purine] | – | – | –
12 | 1 µM | 7.94 µM | > 10 µM | – | – | Cn1c(-c2cccc(F)c2)nc2c(C(F)(F)F)nc(NCCc3ccccc3)nc21 [Compound 20, 8-(3-fluorophenyl)-6-trifluoromethyl-9-methyl-2-phenethylamino purine] | – | – | –
13 | 3.98 µM | > 10 µM | > 10 µM | – | – | Cn1c(/C=C/c2ccccc2)nc2c(C(F)(F)F)nc(NCCc3ccccc3)nc21 [Compound 21, 8-E-styryl-6-trifluoromethyl-9-methyl-2-phenethylamino purine] | – | – | –
14 | 2 µM | > 10 µM | > 10 µM | > 10 µM | 1 µM | Cn1c(/C=C\c2ccccc2)nc2c(C(F)(F)F)nc(NCCc3ccccc3)nc21 [Compound 22, 8-Z-styryl-6-trifluoromethyl-9-methyl-2-phenethylamino purine] | – | – | –
15 | 0.501 µM | > 10 µM | > 10 µM | – | – | Cn1c(C#Cc2ccccc2)nc2c(C(F)(F)F)nc(NCCc3ccccc3)nc21 [Compound 23, 8-phenylacetylene-6-trifluoromethyl-9-methyl-2-phenethylamino purine] | – | – | –
16 | 3.98 µM | > 10 µM | > 10 µM | – | – | Cn1c(/C=C/c2ccc(C(F)(F)F)cc2)nc2c(C(F)(F)F)nc(NCCc3ccccc3)nc21 [Compound 24, 8-E-(4-trifluoromethylstyryl)-6-trifluoromethyl-9-methyl-2-phenethylamino purine] | – | – | –
17 | 5.01 µM | > 10 µM | > 10 µM | – | – | Cn1c(/C=C\c2ccc(C(F)(F)F)cc2)nc2c(C(F)(F)F)nc(NCCc3ccccc3)nc21 [Compound 25, 8-Z-(4-trifluoromethylstyryl)-6-trifluoromethyl-9-methyl-2-phenethylamino purine] | – | – | –
18 | 0.01 µM | 5.01 µM | 3.16 µM | – | – | OC[C@H]1O[C@@H](n2cnc3c(C(F)(F)F)nc(NCCc4ccc(O)cc4)nc32)[C@H](O)[C@@H]1O [Compound 27, 2-(4-hydroxy-phenethylamino)-6-trifluoromethyl-9-β-D-ribo-furanosyl purine] | – | – | –
19 | 0.0251 µM | 2.51 µM | > 10 µM | – | – | CC(C)(C)OC(=O)OCn1cnc2c(C(F)(F)F)nc(NCCc3ccccc3)nc21 [Compound 28, 6-trifluoromethyl-2-phenetylamino-9-BocOM-purine] | – | – | –
20 | 0.158 µM | 1.58 µM | 3.16 µM | – | – | OC[C@H]1O[C@@H](n2cnc3c(C(F)(F)F)nc(OCCc4ccccc4)nc32)[C@H](O)[C@@H]1O [Compound 30, 2-phenethyloxy-6-trifluoromethyl-9-β-D-ribofuranosyl purine] | – | – | –
